We go through 3 compounds from US12612403B2, “Nitrogen-containing heterocyclic derivative inhibitor, and preparation method therefor and use thereof” (SHANGHAI HANSOH BIOMEDICAL CO., LTD., priority 2024, dated 2026).

Each structure is given as a SMILES string.

The subject of test [1] is LDLR level in HepG2 cells. The test is described as follows: Effect on the LDLR level in HepG2 cells (ELISA). It is filed as cell-based, Human. The note with it: 48 hours, LDLR in lysate by ELISA. The protocol:
1. Experimental objective: To detect the effect of the compounds on the LDLR protein level.
2. […] A self-adhesive seal was applied, the plate was placed on a plate shaker at room temperature, gently shaken, uniformly mixed, and incubated for 2 hours. • 11) The plate was placed on the plate washer, the washing liquid was set to 350 μL per well, and the plate was washed 4 times repeatedly. • 12) 200 μL of Human LDLR conjugate was added, a self-adhesive seal was applied, and the plate was placed on the plate shaker, well mixed uniformly, and incubated for 2 hours. • 13) The plate was placed on the plate washer, the washing liquid was set to 350 μL per well, and the plate was washed 4 times repeatedly. • 14) 200 μL/well of Substrate solution was added, and the plate was placed in the dark, applied with a self-adhesive seal, placed on the plate shaker, well mixed uniformly, and incubated for 20 minutes. • 15) 50 μL/well of Stop solution was added and mixed uniformly over 20 min. • 16) The optical density (OD) value in each well was measured in sequence at a wavelength of 450 nm by the microplate reader.
3. Experimental data processing method: After the OD values were read by the microplate reader, the OD value of the 0-concentration standard in the standard group was subtracted from the OD values of the standards, control group, and samples to obtain the actual OD values for these wells. […]

Test [2] relates to PCSK9 secreted by HepG2 cells. The test is described as follows: Effect on the concentration of PCSK9 secreted by HepG2 cells (ELISA). In kind it is cell-based. The note with it: Homo sapiens, 48 hours, PCSK9 in culture medium by ELISA. The gist of the method:
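HepG2 cells treated with compound for 48 h at 37° C., 5% CO2. Secreted PCSK9 in medium quantified by sandwich ELISA (HRP detection, OD 450 nm) against a 0–10 ng/mL standard curve. Inhibition relative to control; IC50 fitted from concentration–inhibition data.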

For the next test, the system named is LDL-C. The settings on record: combined with a statin; cited from earlier work.

As to `O=C1c2ncncc2CN1c1ccc(N[C@H]2CC[C@H](Nc3nc4cc(F)ccn4n3)C2)nc1` [Example 21, 6-(6-(((1S,3S)-3-((7-fluoro-[1,2,4]triazolo[1,5-a]pyridin-2-yl)amino)cyclopentyl)amino)pyridin-3-yl)-5,6-dihydro-7H-pyrrolo[3,4-d]pyrimidin-7-one], in test [1], the LDLR expression level was 135%.

Turning to `O=C1c2c(cccc2C(F)(F)F)CN1c1ccc(N[C@H]2CC[C@H](Nc3nc4cc(F)ccn4n3)C2)nc1` [Example 25], in test [2], 17.6 µM corresponded to half-maximal inhibition (IC50). For the same compound, the LDLR expression level in test [1] is reported as 132%.

Turning to `O=C1[C@H](CC[C@H](O)c2ccc(F)cc2)[C@@H](c2ccc(O)cc2)N1c1ccc(F)cc1` [Ezetimibe], the “reduce LDL-C” value in the test on LDL-C is 15-20%.
